What was measured:
[1] = Measurement of cell toxicity using HepG2 human liver cancer cell lines (ATP, Celltiter Glo); assay type: cell-based; details: human, HepG2 cells; 24 hours of exposure, ATP concentration
Procedure: (§1) The cells were then exposed to the compound of the present invention and the comparative compounds for 24 hours. The compound of the present invention and the comparative compounds were dissolved with DMSO, and then diluted 100 times with culture liquid comprising L-glutamine, non-essential amino acids and 1% bovine fetal serum which were added to minimum essential medium (MEM). […] The cells were dissolved with the assay buffer in the measurement kit, and the ATP concentration released from the cells was measured based on luciferin-luciferase enzyme activity. Light emission was measured with a SpectraMax plate reader (Molecular Device).

[2] = test system: HepG2 human liver cancer cell lines; assay: as above; assay type: cell-based; details: 24 hours of exposure, ATP concentration; concentration that produced toxicity in 10% of cells
Procedure: as §1

Human chymase = biological target: T1, Human chymase (Homo sapiens, UniProt P23946); assay: Measurement of human chymase enzyme inhibitory activity; assay type: biochemical; details: for IC90: concentration at which 90% of enzyme activity was inhibited; for IC50: peptide substrate N-Succinyl-Ala-Ala-Pro-Phe-p-nitroanilide 2.5 mmol/L, 37° C., pH 7.6
T1 construct: purchased East Coast Biologics
T1 sequence (P23946 22-247): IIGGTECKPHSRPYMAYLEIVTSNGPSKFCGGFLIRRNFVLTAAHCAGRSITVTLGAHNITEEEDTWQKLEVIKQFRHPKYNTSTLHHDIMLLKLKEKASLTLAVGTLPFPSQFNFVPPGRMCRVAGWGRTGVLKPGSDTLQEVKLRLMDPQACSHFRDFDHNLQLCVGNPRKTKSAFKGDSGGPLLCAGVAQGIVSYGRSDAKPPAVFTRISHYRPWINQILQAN
Procedure: Human Chymase Pure (hereunder called chymase; East Coast Biologics) was stored in a freezer at −20° C., and diluted with distilled water immediately prior to use. N-Succinyl-Ala-Ala-Pro-Phe-p-nitroanilide (hereunder called the peptide substrate; Sigma Aldrich) was prepared with dimethylsulfoxide (hereunder called DMSO) as a 50 mmol/L solution, and stored in a freezer at −20° C. The compound of the present invention and the comparative compounds were prepared with DMSO as 10 mmol/L solutions, and stored in a freezer at −20° C. On the day of measurement, the solutions of the compound of the present invention and the comparative compound were diluted in stages with 50% DMSO to 10 times concentration of the final target concentration, and the solution were prepared. 10 μL solutions of the compounds of the present invention and the comparative compounds, and 80 μL solution of a peptide substrate (final concentration 2.5 mmol/L) diluted with assay buffer (50 mmol/L Tris-HCl, 150 mmol/L NaCl, 50 units/mL heparin (pH 7.6)) were added to a 96-well microplate, incubated for 10 minutes at 37° C. 10 μL of chymase was added to a final concentration of 0.1 μg/L to initiate enzyme activity. Absorbance at 405 nm was monitored for 5 minutes at 30-second intervals, and the reaction speed (Δm O.D./minute) was measured. 10 μL of 50% DMSO was added to the control well and blank well in place of the solutions of the compound of the present invention and the comparative compound. Moreover, 10 μL of distilled water was added to the blank well in place of chymase. Given 100% as the value of the control well reaction speed minus the blank well reaction speed, the reaction speeds of the wells containing the compound of the present invention and the comparative compounds were calculated as percentages.

[3] = Stability experiment using human liver microsomes; assay type: in vitro ADME; details: 5 μmol/L, 0.5 mg/mL human liver microsomes with NADPH, 15 minutes, 37° C.
Procedure: 5 μL of the compound of the present invention and each comparative compound (10 mmol/L DMSO solution) was diluted with 195 μL of 50% acetonitrile aqueous solution to prepare 250 μmol/L solutions of the compound of the present invention and comparative compound. 245 μL of 0.5 mg/mL human liver microsomes (0.1 mol/L pH 7.4 phosphate buffer solution) containing NADPH Co factor (NADPH Regenerating System Solution A (BD Bioscience) and NADPH Regenerating System Solution B (BD Bioscience), each diluted 10 times and 50 times with 0.1 mol/L pH 7.4 phosphate buffer (NADP+2.6 mmol/L)) were added to a reaction container that had been warmed in advance to 37° C. in a water bath, and pre-incubated for 5 minutes, after which 5 μL solution of the compound of the present invention and the comparative compound was added to initiate a reaction (final concentration 5 μmol/L). Immediately after initiation 20 μL was collected, and 20 μL was added to 180 μL of acetonitrile containing I.S. (internal standard (warfarin)) to terminate the reaction. 180 μL of 50% acetonitrile aqueous solution was added to this 20 μL on a plate with a protein exclusion filter, stirred and filtered by suction. The filtrate was used as a standard sample. After incubating the reaction solution for 15 minutes, 20 μL of a liver microsome solution was collected, and added to 180 μL of acetonitrile containing I.S. (internal standard (warfarin)) in order to terminate the reaction. 180 μL of 50% acetonitrile aqueous solution was added to this 20 μL on a plate with a protein exclusion filter, stirred and filtered by suction. The filtrate was used as a reaction sample. The survival ratio (%) was calculated by injecting 5 μL of sample solution into a LC-MS/MS (Thermo Scientific Discovery Max), dividing the peak area ratio of the reaction sample (the compound of the present invention and the comparative compound/I.S.) by the peak area ratio of the standard sample, and multiplying by 100.

Compound	IC50 at 24 h [1] [µM]	Cell toxicity in HepG2 human liver cancer cell lines IC10 [2] [µM]	IC90 (Human chymase) [µM]	IC50 (Human chymase) [µM]	Human liver Ms stability (survival ratio) [3] [%]
Cc1cccc2scc(Cn3c(SCCCC(=O)O)nc4ccccc43)c12 [Comparative Compound 1, 4-(1-((4-methylbenzothiophen-3-yl)methyl)benzimidazol-2-ylthio)butanoic acid, reference compound]	81	45	–	–	–
Cc1cccc2scc(Cc3c(SCCCC(=O)O)nc4ccccn34)c12 [Comparative Compound 2, 4-[3-(4-methyl-benzo[b]thiophen-3-ylmethyl)-imidazo[1,2-a]pyridin-2-ylsulfanyl]butanoic acid, reference compound]	219	66	2.8	0.34	–
O=C(O)c1ccccc1Sc1nc2ccccc2n1Cc1cccc2ccccc12 [Comparative Compound 3, 2-{[1-(1-naphthylmethyl)-1H-benzimidazol-2-yl]thio}benzoic acid, reference compound]	40	29	1.6	0.13	–
Cc1cccc2c1c(Cn1c(Sc3ccccc3C(=O)O)nc3ccccc31)cn2C [Comparative Compound 4, 2-([1-[(1,4-dimethyl-1H-indol-3-yl)methyl]-1H-benzimidazol-2-yl]thio)benzoic acid, reference compound]	84	53	0.79	0.075	–
Cc1cccc2[nH]cc(Cc3c(-c4ccc5ccccc5c4C(=O)O)nc4ccccn34)c12 [Example 7, 2-[3-[(4-methyl-1H-indol-3-yl)methyl]imidazo[1,2-a]pyridin-2-yl]-1-naphthoic acid]	132	58	0.063	0.001	93
Cc1ccc2nc(-c3ccccc3C(=O)O)c(Cc3cn(C)c4cccc(C)c34)n2c1 [Example 11, 2-{3-[(1,4-dimethyl-1H-indol-3-yl)methyl]-6-methylimidazo[1,2-a]pyridin-2-yl}benzoic acid]	> 400	248	0.27	0.023	86
Cc1cccc2c1c(Cc1c(-c3ccccc3C(=O)O)nc3ccccn13)cn2C [Example 13, 2-{3-[(1,4-dimethyl-1H-indol-3-yl)methyl]imidazo[1,2-a]pyridin-2-yl}benzoic acid]	424	135	0.2	0.028	93
CCn1cc(Cc2c(-c3ccccc3C(=O)O)nc3ccccn23)c2c(C)cccc21 [Example 15, 2-{3-[(1-ethyl-4-methyl-1H-indol-3-yl)methyl]imidazo[1,2-a]pyridin-2-yl}benzoic acid]	267	115	0.24	0.03	87
Cc1cccc2[nH]cc(Cc3c(-c4ccc5ccccc5c4C(=O)O)nc4ccc(F)cn34)c12 [Example 16, 2-{6-fluoro-3-[(4-methyl-1H-indol-3-yl)methyl]imidazo[1,2-a]pyridin-2-yl}-1-naphthoic acid]	131	29	0.006	0.001	88
Cc1c(F)ccc2[nH]cc(Cc3c(-c4ccccc4C(=O)O)nc4ccccn34)c12 [Example 19, 2-{3-[(5-fluoro-4-methyl-1H-indol-3-yl)methyl]imidazo[1,2-a]pyridin-2-yl}benzoic acid]	247	70	0.12	0.011	100
Cc1cccc2c1c(Cc1c(-c3ccc4ccccc4c3C(=O)O)nc3ccccn13)cn2CCN1CCOCC1 [Example 23-(4), 2-[3-({4-methyl-1-[2-(4-morpholinyl)ethyl]-1H-indol-3-yl}methyl)imidazo[1,2-a]pyridin-2-yl]-1-naphthoic acid]	173	79	0.008	0.002	100
